The source of these data is patent EP2298778A1, “IMIDAZOTHIAZOLE DERIVATIVE HAVING 4,7-DIAZASPIROÝ2.5¨OCTANE RING STRUCTURE” (Daiichi Sankyo Company, Limited, priority 2008, dated 2009).

Structures are written as SMILES.

This data set in a line: Metabolic stability test (microsomal metabolism test). The format is in vitro ADME. The note with it: pH 7.4; human-derived liver microsomes, test compound remaining after addition of NADP+ and incubation at 37°C for 30 minutes; read-out: metabolic stability of T/C%. The procedure:
(Test Example 3 Metabolic stability test) 100 µL of 100 mM phosphate buffer solution (pH 7.4) containing 3 µM test compound was added to 100 µL of reaction solution containing 100 mM phosphate buffer solution (pH 7.4), 30 mM glucose 6-phosphate, 10 mM MgCl2·6H2O, 3 units/mL glucose 6-phosphate 1-dehydrogenase, and 0.3 to 1.5 mgP/mL human liver microsomes and the mixture was incubated at 37°C for 20 minutes. Then, 70 µL of 100 mM phosphate buffer solution (pH 7.4) containing 3 mM NADP^+ was added and the mixture was incubated at 37°C for 30 minutes to conduct a microsomal metabolism test. The metabolic stability was calculated according to the following formula: T/C (%) = ((concentration of test compound after addition of NADP)^+and incubation for30minutes)/((concentration of test compound before addition of NADP)^+) × 100. [formula] […]
A general note: Microsomes from liver hold many membrane-bound enzymes, among them those of drug oxidation.
For the compound `CCN(C(=O)C1=C(C(C)C)N2C(=N[C@@](C)(c3ccc(Cl)cc3)[C@H]2c2ccc(Cl)cc2)S1)C1(C(=O)N2CCNC3(CC3)C2)CC1` [Example 50, (5R,6S)-5,6-bis(4-chlorophenyl)-N-[1-(4,7-diazaspiro[2.5]oct-7-ylcarbonyl)cyclopropyl]-N-ethyl-3-isopropyl-6-methyl-5,6-dihydroimidazo[2,1-b][1,3] thiazole-2-carboxamide], the remaining at 0.5 h is no less than 50%.

Take `CCN(C(=O)C1=C(C(C)C)N2C(=N[C@@](C)(c3ccc(Cl)cc3)[C@H]2c2ccc(Cl)c(F)c2)S1)C1(C(=O)N2CCNC3(CC3)C2)CC1` [Example 52, (5R,6S)-5-(4-chloro-3-fluorophenyl)-6-(4-chlorophenyl)-N-[1-(4,7-diazaspiro[2.5]oct-7-ylcarbonyl)cyclopropyl]-N-ethyl-3-isopropyl-6-methyl-5,6-dihydroimidazo[2,1-b][1,3]thiazole-2-carboxamide]: the remaining at 0.5 h is no less than 50%.

`CCN(C(=O)C1=C(C(C)C)N2C(=N[C@@](C)(c3ccc(Cl)nc3)[C@H]2c2ccc(Cl)c(F)c2)S1)C1(C(=O)N2CCNC3(CC3)C2)CC1` [Example 53, (5R,6S)-5-(4-chloro-3-fluorophenyl)-6-(6-chloropyridin-3-yl)-N-[1-(4,7-diazaspiro[2.5]oct-7-ylcarbonyl)cyclopropyl]-N-ethyl-3-isopropyl-6-methyl-5,6-dihydroimidazo[2,1-b][1,3]thiazole-2-carboxamide]: the remaining at 0.5 h was no less than 50%.

Turning to `CCN(C(=O)C1=C(C(C)C)N2C(=N[C@@](C)(c3ccc(Cl)cc3)[C@H]2c2ccc(Cl)cc2)S1)[C@@H](C)C(=O)N1CCNC2(CC2)C1` [Example 54, (5R,6S)-5,6-bis(4-chlorophenyl)-N-[(1S)-2-(4,7-diazaspiro[2.5]oct-7-yl)-1-methyl-2-oxoethyl]-N-ethyl-3-isopropyl-6-methyl-5,6-dihydroimidazo[2,1-b][1,3]thiazole-2-carboxamide], the remaining at 0.5 h is no less than 50%.

Take `CC[C@@H]1CC[C@@H](C(=O)N2C[C@@H](C)NC3(CC3)C2)N1C(=O)C1=C(C(C)C)N2C(=N[C@@](C)(c3ccc(Cl)nc3)[C@H]2c2ccc(Cl)c(F)c2)S1` [Example 55, (5R)-7-[(5R)-1-{[(5R,6S)-5-(4-chloro-3-fluorophenyl)-6-(6-chloropyridin-3-yl)-3-isopropyl-6-methyl-5,6-dihydroimidazo[2,1-b][1,3]thiazol-2-yl]carbonyl}-5-ethyl-L-prolyl]-5-methyl-4,7-diazaspiro[2.5]octane]: the remaining at 0.5 h was no less than 50%.

On to `CC[C@@H]1CC[C@@H](C(=O)N2CC3(CC3)NC[C@@H]2C)N1C(=O)C1=C(C(C)C)N2C(=N[C@@](C)(c3ccc(Cl)nc3)[C@H]2c2ccc(Cl)c(F)c2)S1` [Example 56, (6S)-7-[(5R)-1-{[(5R,6S)-5-(4-chloro-3-fluorophenyl)-6-(6-chloropyridin-3-yl)-3-isopropyl-6-methyl-5,6-dihydroimidazo[2,1-b][1,3]thiazol-2-yl]carbonyl}-5-ethyl-L-prolyl]-6-methyl-4,7-diazaspiro[2.5]octane], for which the remaining at 0.5 h is no less than 50%.

Consider `CC(C)C1=C(C(=O)N2CCC[C@H]2C(=O)N2CC3(CC3)NC[C@@H]2C)SC2=N[C@@](C)(c3ccc(Cl)nc3)[C@@H](c3ccc(Cl)c(F)c3)N21` [Example 57, (6S)-7-(1-{[(5R,6S)-5-(4-chloro-3-fluorophenyl)-6-(6-chloropyridin-3-yl)-3-isopropyl-6-methyl-5,6-dihydroimidazo[2,1-b][1,3]thiazol-2-yl]carbonyl}-L-prolyl)-6-methyl-4,7-diazaspiro[2.5]octane], for which the remaining at 0.5 h was no less than 50%.

In the case of `CC[C@H]1CNC2(CC2)CN1C(=O)[C@@H]1CC[C@@H](C)N1C(=O)C1=C(C(C)C)N2C(=N[C@@](C)(c3ccc(Cl)nc3)[C@H]2c2ccc(Cl)c(F)c2)S1` [Example 58, (6S)-7-[(5R)-1-{[(5R,6S)-5-(4-chloro-3-fluorophenyl)-6-(6-chloropyridin-3-yl)-3-isopropyl-6-methyl-5,6-dihydroimidazo[2,1-b][1,3]thiazol-2-yl]carbonyl}-5-methyl-L-prolyl]-6-ethyl-4,7-diazaspiro[2.5]octane], the remaining at 0.5 h is no less than 50%.

For `CC[C@@H]1CNC2(CC2)CN1C(=O)[C@@H]1CC[C@@H](C)N1C(=O)C1=C(C(C)C)N2C(=N[C@@](C)(c3ccc(Cl)nc3)[C@H]2c2ccc(Cl)c(F)c2)S1` [Example 59, (6R)-7-[(5R)-1-{[(5R,6S)-5-(4-chloro-3-fluorophenyl)-6-(6-chloropyridin-3-yl)-3-isopropyl-6-methyl-5,6-dihydroimidazo[2,1-b][1,3]thiazol-2-yl]carbonyl}-5-methyl-L-prolyl]-6-ethyl-4,7-diazaspiro[2.5]octane], the remaining at 0.5 h was no less than 50%.

Consider `CC(C)C1=C(C(=O)N2[C@H](C)CC[C@H]2C(=O)N2CC3(CC3)N(C(=O)C(F)(F)F)C[C@@H]2C)SC2=N[C@@](C)(c3ccc(Cl)nc3)[C@@H](c3ccc(Cl)c(F)c3)N21` [Example 60, (6S)-7-[(5R)-1-{[(5R, 6S)-5-(4-chloro-3-fluorophenyl)-6-(6-chloropyridin-3-yl)-3-isopropyl-6-methyl-5,6-dihydroimidazo[2,1-b][1,3]thiazol-2-yl]carbonyl}-5-methyl-L-prolyl]-6-methyl-4-(trifluoroacetyl)-4,7-diazaspiro[2.5]octane], for which the remaining at 0.5 h is no less than 50%.

With `CC[C@H]1CNC2(CC2)CN1C(=O)[C@@H]1CCCN1C(=O)C1=C(C(C)C)N2C(=N[C@@](C)(c3ccc(Cl)nc3)[C@H]2c2ccc(Cl)c(F)c2)S1` [Example 61, (6S)-7-(1-{[(5R,6S)-5-(4-chloro-3-fluorophenyl)-6-(6-chloropyridin-3-yl)-3-isopropyl-6-methyl-5,6-dihydroimidazo[2,1-b][1,3]thiazol-2-yl]carbonyl}-L-prolyl)-6-ethyl-4,7-diazaspiro[2.5]octane], the remaining at 0.5 h is no less than 50%.

With `CC[C@@H]1CNC2(CC2)CN1C(=O)[C@@H]1CCCN1C(=O)C1=C(C(C)C)N2C(=N[C@@](C)(c3ccc(Cl)nc3)[C@H]2c2ccc(Cl)c(F)c2)S1` [Example 62, (6R)-7-(1-{[(5R,6S)-5-(4-chloro-3-fluorophenyl)-6-(6-chloropyridin-3-yl)-3-isopropyl-6-methyl-5,6-dihydroimidazo[2,1-b][1,3]thiazol-2-yl]carbonyl}-L-prolyl)-6-ethyl-4,7-diazaspiro[2.5]octane], the remaining at 0.5 h was no less than 50%.

Consider `CO[C@@H]1C[C@@H](C(=O)N2CC3(CC3)NC[C@@H]2C)N(C(=O)C2=C(C(C)C)N3C(=N[C@@](C)(c4ccc(Cl)nc4)[C@H]3c3ccc(Cl)c(F)c3)S2)C1` [Example 63, (6S)-7-[(4R)-1-{[(5R,6S)-5-(4-chloro-3-fluorophenyl)-6-(6-chloropyridin-3-yl)-3-isopropyl-6-methyl-5,6-dihydroimidazo[2,1-b][1,3]thiazol-2-yl]carbonyl}-4-methoxy-L-prolyl]-6-methyl-4,7-diazaspiro[2.5]octane], for which the remaining at 0.5 h is no less than 50%.

On to `CC(C)C1=C(C(=O)N2CCC[C@H]2C(=O)N2CC3(CC3)NC[C@H]2C)SC2=N[C@@](C)(c3ccc(Cl)nc3)[C@@H](c3ccc(Cl)c(F)c3)N21` [Example 64, (6R)-7-(1-{[(5R,6S)-5-(4-chloro-3-fluorophenyl)-6-(6-chloropyridin-3-yl)-3-isopropyl-6-methyl-5,6-dihydroimidazo[2,1-b][1,3]thiazol-2-yl]carbonyl}-L-prolyl)-6-methyl-4,7-diazaspiro[2.5]octane], for which the remaining at 0.5 h was no less than 50%.
